Source: paper PMC11062922 (Nature Chemical Biology, 2023)

Experiments:
GRK6 = target: T1, GRK6 (Homo sapiens, UniProt P43250); assay: Kinobeads two-dose competition binding: GRK6; conditions: Kinobeads two-dose, Drugmatrix - all 2; read-out: apparent Kd GRK6
T1 construct: endogenous in cells

PRKCA = target: T2, PRKCA (Homo sapiens, UniProt P17252); assay: Kinobeads full dose-response competition binding: PRKCA; conditions: Gene Name PRKCA, doses in nM
T2 construct: endogenous in cells

PAK4 = target: T3, PAK4 (Homo sapiens, UniProt O96013); assay: Kinobeads full dose-response competition binding: PAK4; conditions: Gene Name PAK4, doses in nM
T3 construct: a mixture of lysates from five cancer cell lines; endogenous in cells
T3 sequence (O96013 whole entry): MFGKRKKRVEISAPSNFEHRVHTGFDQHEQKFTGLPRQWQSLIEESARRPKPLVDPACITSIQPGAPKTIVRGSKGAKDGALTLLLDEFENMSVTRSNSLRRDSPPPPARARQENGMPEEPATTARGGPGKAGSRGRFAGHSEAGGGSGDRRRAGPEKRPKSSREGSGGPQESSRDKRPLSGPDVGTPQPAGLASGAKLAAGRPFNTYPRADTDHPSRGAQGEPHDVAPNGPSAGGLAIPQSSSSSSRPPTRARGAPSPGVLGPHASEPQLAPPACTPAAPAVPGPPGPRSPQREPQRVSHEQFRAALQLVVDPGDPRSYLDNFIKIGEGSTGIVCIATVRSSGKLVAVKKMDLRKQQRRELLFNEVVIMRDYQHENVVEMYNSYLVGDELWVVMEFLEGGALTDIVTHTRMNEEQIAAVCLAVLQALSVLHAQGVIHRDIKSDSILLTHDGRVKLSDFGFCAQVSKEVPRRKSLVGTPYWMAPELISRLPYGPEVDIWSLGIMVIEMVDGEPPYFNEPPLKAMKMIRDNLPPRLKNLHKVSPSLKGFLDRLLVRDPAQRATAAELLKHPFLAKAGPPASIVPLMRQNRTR

[1] = system: IL-10 secretion in primary bone marrow-derived dendritic cells (BMDCs); assay: IL-10 cytokine secretion assay (ELISA) in Zymosan-stimulated primary BMDCs; assay type: cell-based, mouse; conditions: murine BMDCs, inhibitor 30 min before Zymosan stimulation
Description: A subsequent full dose–response experiment confirmed potent and selective binding to SYK ( Kdapp = 58 nM, […] = 0.60; Extended Data Fig. 5a,b). […] One of the effects of Zymosan is that it activates Dectin-1 signaling, in turn activating SYK and leading to increased IL-10 cytokine production (Fig. 3c)[34]. Treatment of cells with the respective SYK inhibitors before Zymosan stimulation indeed led to decreased levels of IL-10 in a dose-dependent fashion (Fig. 3d). […] In line with the cytokine readout, we observed a dose depended reduction of pTyr525/526 indicating SYK inhibition in live cells (Fig. 3e and Extended Data Fig. 5c).
Primary BMDCs were obtained from 9-week-old C57BL/6 mice that were maintained under standard specific pathogen-free conditions. BMDCs were differentiated for 7 days in Roswell Park Memorial Institute medium (Gibco) and granulocyte-macrophage colony-stimulating factor. On day seven, BMDCs were seeded in 96-well plates at 10^5 cells per well in 100 µl of culture medium followed by incubation for 4 h at 37 °C. Subsequently, cells were incubated with SYK inhibitors for 30 min followed by stimulation with Zymosan (final concentration of 50 µg ml^−1; Invivogen) and dispersed in culture medium for 24 h. […] For cytokine secretion quantification, cell culture medium was collected and concentrations of IL-10 in the supernatant were determined using mouse enzyme-linked immunosorbent assay kits (IL-10: Invitrogen) according to the manufacturer’s protocol. Experiments were performed in biological triplicates.

ABL2 [2] = target: T4, ABL2 (Homo sapiens, UniProt P42684); assay: Kinobeads two-dose competition binding: ABL2; conditions: sheet CATDS matrix 2; Gene Name ABL2
T4 construct: endogenous in cells
T4 sequence (P42684 whole entry): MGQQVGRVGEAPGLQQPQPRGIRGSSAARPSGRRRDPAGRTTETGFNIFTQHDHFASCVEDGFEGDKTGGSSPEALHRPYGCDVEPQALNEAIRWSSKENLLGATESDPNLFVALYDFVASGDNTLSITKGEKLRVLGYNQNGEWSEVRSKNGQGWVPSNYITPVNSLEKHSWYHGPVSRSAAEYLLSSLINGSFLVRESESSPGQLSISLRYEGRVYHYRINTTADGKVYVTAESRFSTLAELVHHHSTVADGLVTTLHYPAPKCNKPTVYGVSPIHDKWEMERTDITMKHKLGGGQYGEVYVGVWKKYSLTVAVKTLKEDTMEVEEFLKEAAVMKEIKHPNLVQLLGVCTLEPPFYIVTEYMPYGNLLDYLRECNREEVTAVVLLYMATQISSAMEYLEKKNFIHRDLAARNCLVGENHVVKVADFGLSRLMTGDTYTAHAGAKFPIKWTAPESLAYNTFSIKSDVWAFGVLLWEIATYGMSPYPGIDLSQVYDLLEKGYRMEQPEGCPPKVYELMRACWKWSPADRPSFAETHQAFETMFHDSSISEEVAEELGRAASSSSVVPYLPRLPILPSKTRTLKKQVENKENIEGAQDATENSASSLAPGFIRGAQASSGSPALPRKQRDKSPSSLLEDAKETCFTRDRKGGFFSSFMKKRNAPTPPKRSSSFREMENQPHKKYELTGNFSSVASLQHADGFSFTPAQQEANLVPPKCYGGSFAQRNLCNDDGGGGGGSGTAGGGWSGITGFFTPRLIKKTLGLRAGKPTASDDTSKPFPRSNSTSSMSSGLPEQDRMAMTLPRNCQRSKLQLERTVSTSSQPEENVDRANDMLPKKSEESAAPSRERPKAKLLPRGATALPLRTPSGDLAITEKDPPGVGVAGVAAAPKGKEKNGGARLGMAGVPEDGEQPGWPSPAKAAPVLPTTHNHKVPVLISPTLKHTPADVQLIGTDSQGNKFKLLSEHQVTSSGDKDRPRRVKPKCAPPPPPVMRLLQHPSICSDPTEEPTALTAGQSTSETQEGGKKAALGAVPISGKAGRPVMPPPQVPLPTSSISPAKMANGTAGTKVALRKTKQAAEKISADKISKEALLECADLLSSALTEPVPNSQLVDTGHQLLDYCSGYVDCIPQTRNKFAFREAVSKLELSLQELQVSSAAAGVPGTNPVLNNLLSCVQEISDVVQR

ABL1 [3] = target: T5, ABL1 (Homo sapiens, UniProt P00519); assay: Kinobeads two-dose competition binding: ABL1; conditions: sheet CATDS matrix 2; Gene Name ABL1
T5 sequence (P00519 28-1130 limits assumed): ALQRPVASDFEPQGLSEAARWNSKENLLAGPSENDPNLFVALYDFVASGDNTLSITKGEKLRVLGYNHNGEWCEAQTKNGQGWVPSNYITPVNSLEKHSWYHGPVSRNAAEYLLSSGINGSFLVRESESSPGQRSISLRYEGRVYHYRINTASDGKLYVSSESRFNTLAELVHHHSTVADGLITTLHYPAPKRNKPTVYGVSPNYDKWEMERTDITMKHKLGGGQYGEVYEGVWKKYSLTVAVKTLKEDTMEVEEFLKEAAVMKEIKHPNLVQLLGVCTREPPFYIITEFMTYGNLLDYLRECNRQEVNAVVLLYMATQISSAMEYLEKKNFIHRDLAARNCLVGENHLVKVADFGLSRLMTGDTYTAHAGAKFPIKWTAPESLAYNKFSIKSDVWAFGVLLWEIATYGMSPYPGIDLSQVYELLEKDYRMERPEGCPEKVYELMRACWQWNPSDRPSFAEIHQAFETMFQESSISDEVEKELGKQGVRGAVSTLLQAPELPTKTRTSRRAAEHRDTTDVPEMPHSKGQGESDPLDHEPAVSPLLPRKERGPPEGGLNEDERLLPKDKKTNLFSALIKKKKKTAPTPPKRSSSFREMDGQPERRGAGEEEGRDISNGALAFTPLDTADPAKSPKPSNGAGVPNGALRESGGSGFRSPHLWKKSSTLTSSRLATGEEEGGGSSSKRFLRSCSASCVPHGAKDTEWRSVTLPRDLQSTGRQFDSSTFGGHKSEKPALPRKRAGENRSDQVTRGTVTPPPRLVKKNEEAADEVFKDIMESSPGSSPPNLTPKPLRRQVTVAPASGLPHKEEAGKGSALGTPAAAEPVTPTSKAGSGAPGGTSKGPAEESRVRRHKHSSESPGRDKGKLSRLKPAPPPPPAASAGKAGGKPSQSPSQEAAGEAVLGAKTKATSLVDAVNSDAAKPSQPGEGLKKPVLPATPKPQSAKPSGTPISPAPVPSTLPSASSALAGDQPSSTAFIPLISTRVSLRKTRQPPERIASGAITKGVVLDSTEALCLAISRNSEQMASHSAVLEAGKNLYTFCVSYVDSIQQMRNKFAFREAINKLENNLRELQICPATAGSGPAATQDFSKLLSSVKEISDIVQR

ABCD3 = target: T6, ABCD3 (Homo sapiens, UniProt P28288); assay: Kinobeads two-dose competition binding: ABCD3; conditions: sheet "Kinobeads Drugmatrix - all"; unit inferred; read-out: Kinobeads Drugmatrix - all: apparent Kd, ABCD3
T6 construct: endogenous in cells
T6 sequence (P28288 1-659): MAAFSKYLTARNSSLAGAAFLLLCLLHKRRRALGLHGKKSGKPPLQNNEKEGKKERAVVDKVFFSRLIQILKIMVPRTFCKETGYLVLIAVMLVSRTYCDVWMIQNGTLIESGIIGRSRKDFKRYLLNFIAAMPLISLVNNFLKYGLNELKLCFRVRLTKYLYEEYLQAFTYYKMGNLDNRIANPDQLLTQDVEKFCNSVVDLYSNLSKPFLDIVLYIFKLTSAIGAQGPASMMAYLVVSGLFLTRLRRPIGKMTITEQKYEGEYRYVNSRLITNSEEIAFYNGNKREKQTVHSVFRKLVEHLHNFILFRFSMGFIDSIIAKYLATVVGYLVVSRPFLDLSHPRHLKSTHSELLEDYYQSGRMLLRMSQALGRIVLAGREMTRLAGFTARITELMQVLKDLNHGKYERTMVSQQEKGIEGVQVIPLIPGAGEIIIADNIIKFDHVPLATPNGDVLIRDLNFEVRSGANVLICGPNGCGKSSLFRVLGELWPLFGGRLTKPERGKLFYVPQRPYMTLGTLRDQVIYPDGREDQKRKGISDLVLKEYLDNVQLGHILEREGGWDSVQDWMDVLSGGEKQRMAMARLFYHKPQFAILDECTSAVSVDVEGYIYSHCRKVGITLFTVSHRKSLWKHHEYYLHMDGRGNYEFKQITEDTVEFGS

ACOX1 = target: T7, ACOX1 (Homo sapiens, UniProt Q15067); assay: Kinobeads two-dose competition binding: ACOX1; conditions: for CATDS: sheet CATDS matrix 2, Gene Name ACOX1;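 as to all read-outs here: competition of compounds with immobilized broad-spectrum kinase inhibitor beads in cell lysate at 100 and 1,000 nM, 45 min at 4 °C, bead-bound protein quantified by label-free MS versus DMSO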
T7 construct: endogenous in cells
T7 sequence (Q15067 1-660): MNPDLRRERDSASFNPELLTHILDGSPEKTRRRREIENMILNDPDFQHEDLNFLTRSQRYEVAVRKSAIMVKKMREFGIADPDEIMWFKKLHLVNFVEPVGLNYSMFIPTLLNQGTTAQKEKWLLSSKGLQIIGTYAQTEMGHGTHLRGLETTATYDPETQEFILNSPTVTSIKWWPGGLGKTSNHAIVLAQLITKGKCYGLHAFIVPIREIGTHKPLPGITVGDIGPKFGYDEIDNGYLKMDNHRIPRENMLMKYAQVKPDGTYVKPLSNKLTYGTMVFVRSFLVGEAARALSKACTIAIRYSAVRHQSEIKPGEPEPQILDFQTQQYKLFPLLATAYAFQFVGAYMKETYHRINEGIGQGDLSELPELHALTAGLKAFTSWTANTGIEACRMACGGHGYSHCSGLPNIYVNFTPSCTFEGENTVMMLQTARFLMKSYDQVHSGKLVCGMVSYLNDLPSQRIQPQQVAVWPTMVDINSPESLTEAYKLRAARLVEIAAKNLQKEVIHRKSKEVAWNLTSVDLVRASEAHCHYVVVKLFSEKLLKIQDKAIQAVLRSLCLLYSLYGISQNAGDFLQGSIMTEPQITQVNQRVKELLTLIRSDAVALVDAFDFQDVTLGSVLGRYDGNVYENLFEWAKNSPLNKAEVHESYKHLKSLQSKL

AAK1 = target: T8, AAK1 (Homo sapiens, UniProt Q2M2I8); assay: Kinobeads two-dose competition binding: AAK1; conditions: for CATDS: sheet CATDS matrix 2, Gene Name AAK1; for potency estimated from few doses: sheet "Kinobeads Drugmatrix - all", unit inferred, same values below 1000 recur in sheet "nanomolar", read-out: Kinobeads Drugmatrix - all: apparent Kd, AAK1;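 as to all read-outs here: kinobeads competition pulldown from cell lysate, compound preincubated 45 min at 4 °C, bead-bound protein measured by label-free mass spectrometry against DMSO vehicle control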
T8 construct: to maximize the representation of endogenous proteins; endogenous in cells
T8 sequence (Q2M2I8 whole entry): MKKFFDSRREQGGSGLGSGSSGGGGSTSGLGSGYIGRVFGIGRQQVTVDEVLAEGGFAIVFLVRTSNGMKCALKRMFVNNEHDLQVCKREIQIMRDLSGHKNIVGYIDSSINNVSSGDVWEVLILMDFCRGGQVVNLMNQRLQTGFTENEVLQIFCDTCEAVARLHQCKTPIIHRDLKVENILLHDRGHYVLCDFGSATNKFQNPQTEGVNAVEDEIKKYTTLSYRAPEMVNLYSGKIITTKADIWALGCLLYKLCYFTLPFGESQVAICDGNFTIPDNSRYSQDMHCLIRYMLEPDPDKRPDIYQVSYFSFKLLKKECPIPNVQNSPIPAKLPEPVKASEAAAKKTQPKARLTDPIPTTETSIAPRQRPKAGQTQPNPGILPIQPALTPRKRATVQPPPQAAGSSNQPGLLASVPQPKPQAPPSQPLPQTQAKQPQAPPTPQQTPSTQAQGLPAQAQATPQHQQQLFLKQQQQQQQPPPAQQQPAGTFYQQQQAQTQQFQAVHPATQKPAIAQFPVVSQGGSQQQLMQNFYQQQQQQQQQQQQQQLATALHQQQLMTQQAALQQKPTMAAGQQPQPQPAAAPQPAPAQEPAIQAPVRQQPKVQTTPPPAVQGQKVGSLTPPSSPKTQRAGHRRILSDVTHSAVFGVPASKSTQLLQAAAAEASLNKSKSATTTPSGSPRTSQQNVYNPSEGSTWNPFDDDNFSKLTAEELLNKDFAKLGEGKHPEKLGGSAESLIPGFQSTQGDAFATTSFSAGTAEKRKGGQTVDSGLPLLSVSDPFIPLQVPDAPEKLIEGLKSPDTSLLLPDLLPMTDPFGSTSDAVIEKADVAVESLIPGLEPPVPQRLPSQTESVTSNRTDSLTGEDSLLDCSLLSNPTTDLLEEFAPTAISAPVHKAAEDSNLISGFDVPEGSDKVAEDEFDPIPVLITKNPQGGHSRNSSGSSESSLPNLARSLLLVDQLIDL

ACAD11 [4] = target: T9, ACAD11 (Homo sapiens, UniProt Q709F0); assay: Kinobeads two-dose competition binding: ACAD11; conditions: sheet CATDS matrix 2; Gene Name ACAD11
T9 construct: endogenous in cells
T9 sequence (Q709F0 1-780): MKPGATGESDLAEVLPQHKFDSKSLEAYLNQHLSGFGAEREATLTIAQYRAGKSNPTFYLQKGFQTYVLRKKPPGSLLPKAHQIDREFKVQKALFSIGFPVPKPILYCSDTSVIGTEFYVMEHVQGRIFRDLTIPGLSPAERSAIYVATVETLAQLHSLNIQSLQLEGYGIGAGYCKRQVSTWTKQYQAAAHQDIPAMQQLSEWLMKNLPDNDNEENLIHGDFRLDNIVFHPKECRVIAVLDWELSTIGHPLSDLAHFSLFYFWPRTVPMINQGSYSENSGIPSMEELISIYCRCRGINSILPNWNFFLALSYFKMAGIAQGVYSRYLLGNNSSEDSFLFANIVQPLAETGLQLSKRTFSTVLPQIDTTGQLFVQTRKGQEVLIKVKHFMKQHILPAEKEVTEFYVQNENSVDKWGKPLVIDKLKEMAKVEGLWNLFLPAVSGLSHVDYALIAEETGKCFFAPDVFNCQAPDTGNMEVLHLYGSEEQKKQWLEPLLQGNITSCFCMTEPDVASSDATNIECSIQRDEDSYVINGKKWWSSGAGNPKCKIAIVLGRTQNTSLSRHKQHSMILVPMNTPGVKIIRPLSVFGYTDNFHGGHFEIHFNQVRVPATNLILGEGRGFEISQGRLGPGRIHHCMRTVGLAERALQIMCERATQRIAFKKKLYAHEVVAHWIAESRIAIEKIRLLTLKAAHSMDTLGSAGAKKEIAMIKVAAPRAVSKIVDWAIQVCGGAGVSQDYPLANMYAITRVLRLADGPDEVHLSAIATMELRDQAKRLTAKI

ACAD11 [5] = target: T9, ACAD11; assay: Kinobeads two-dose competition binding: ACAD11; conditions: sheet "Kinobeads Drugmatrix - all"; unit inferred; read-out: Kinobeads Drugmatrix - all: apparent Kd, ACAD11
ABL2 [6] = target: T4, ABL2; assay: Kinobeads two-dose competition binding: ABL2; conditions: sheet "Kinobeads Drugmatrix - all"; unit inferred; read-out: Kinobeads Drugmatrix - all: apparent Kd, ABL2
[7] = system: endogenous kinases and other proteins enriched by Kinobeads from mixed lysates of K-562, COLO-205, MV-4-11, SK-N-BE(2) and OVCAR-8; assay: Kinobeads competition binding profiling, two doses (100 nM and 1 µM); parameters: species or system human; conditions: in words;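 also: inhibitor preincubated 45 min at 4 °C in cell lysate, then bead pulldown. Bound protein quantified by label-free mass spectrometry relative to DMSO vehicle control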
ABL1 [8] = target: T5, ABL1; assay: Kinobeads two-dose competition binding: ABL1; conditions: sheet "Kinobeads Drugmatrix - all"; unit inferred; read-out: Kinobeads Drugmatrix - all: apparent Kd, ABL1
[9] = target: T10, endogenous kinases and other proteins enriched by Kinobeads from mixed lysates of K-562, COLO-205, MV-4-11, SK-N-BE(2) and OVCAR-8 (Homo sapiens, UniProt O43353); assay: Kinobeads competition binding profiling, two doses (100 nM and 1 µM); conditions: target RIPK2; read-out: apparent Kd;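 also: inhibitor preincubated 45 min at 4 °C in cell lysate, then bead pulldown. Bound protein quantified by label-free mass spectrometry relative to DMSO vehicle control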
T10 construct: to maximize the representation of endogenous proteins; endogenous in cells

FLT3 = assay: Kinobeads two-dose competition binding: FLT3; parameters: species or system human
PKN3 = PKN3 (Homo sapiens, UniProt Q6P5Z2); parameters: full-length PKN3, CSNK2A1 or CSNK2A2 ORF; host or cells: HEK293T; conditions: reported for the most potent 4-anilinoquin(az)oline; cited from earlier work
[10] = EC50 with Correction, read-out: apparent Kd

T1 sequence (P43250 whole entry): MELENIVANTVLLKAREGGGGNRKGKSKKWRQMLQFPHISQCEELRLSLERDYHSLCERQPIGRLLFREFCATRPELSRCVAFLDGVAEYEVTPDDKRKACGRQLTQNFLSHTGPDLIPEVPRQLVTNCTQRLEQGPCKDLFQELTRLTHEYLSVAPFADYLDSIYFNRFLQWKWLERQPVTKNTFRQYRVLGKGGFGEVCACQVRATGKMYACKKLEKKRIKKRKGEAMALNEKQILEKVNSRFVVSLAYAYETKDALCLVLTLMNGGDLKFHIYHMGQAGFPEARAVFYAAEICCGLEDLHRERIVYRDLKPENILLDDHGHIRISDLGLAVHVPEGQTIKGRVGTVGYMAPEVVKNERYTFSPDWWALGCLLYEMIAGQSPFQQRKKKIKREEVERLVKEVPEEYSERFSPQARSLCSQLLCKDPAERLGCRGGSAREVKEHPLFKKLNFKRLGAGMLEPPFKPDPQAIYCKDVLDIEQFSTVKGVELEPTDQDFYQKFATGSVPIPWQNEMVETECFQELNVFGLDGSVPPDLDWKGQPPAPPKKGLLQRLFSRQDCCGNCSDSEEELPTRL

SMILES | CATDS (ABL2 [2]) | CATDS (ABL1 [3]) | CATDS (ACOX1) | CATDS (AAK1) | CATDS (ACAD11 [4]) | other results
c1ccc(-c2cnc3nccnn23)cc1 [AH20685XX] | – | – | – | – | – | potency estimated from few doses (GRK6): > 1000 nM
Cc1cccc(Nc2nc(N[C@H]3CCCC[C@H]3N)ncc2C(N)=O)c1 [GSK986310C] | – | – | – | – | – | Kd (PRKCA; [10]): 272 nM; EC50 (PRKCA; eight-dose curve fit): 446 nM; Kd (PAK4; [10]): 65.9 nM; EC50 (PAK4; eight-dose curve fit): 135 nM; IL-10 levels [1]: dose-dependent reduction
O=c1[nH]ccc2nc(N[C@@H]3CCNC3)nc(Nc3ccc4c(c3)S(=O)(=O)CC4)c12 [GSK2181306A] | 0 | 0 | 0 | 0.01021 | 0.02228 | potency estimated from few doses (ACAD11 [5]): 145 nM; potency estimated from few doses (AAK1): 800 nM
CNC(=O)c1cncc(/C=C/c2c(Cl)cccc2Cl)c1 [GW445014X] | – | – | – | – | – | potency estimated from few doses [9]: 773 nM
O=C1Nc2ccc(F)cc2/C1=C/c1ccc[nH]1 [RO0272148-000] | – | – | – | – | – | potency estimated from few doses (FLT3; Kinobeads two-dose (100 nM and 1 µM), mixed cell lysate, read-out: Kdapp FLT3): 99 nM; CATDSFLT3 (FLT3; selectivity score from Kinobeads two-dose data): 0.87; potency estimated from few doses (ACOX1; Kinobeads two-dose, mixed cell lysate, read-out: Kdapp ACOX1): > 1000 nM
COc1cc(Nc2ccnc3cc(I)ccc23)cc(OC)c1OC [UNC-CA94] | – | – | – | – | – | in-cell target engagement PKN3 (PKN3): 1.3 µM

More lines, main results first:

CATDS (ABL2 [2]) | CATDS (ABL1 [3]) | CATDS (ACOX1) | CATDS (AAK1) | CATDS (ACAD11 [4]) | SMILES | other results
0 | 0 | 0 | 0 | 0 | CCn1cc(-c2ccnc3[nH]c(-c4cccc(CN(C)C)c4)cc23)c(-c2ccc(NC(=O)N(C)C)cc2)n1 [GSK1070916] | potency estimated from few doses (ABCD3): > 1000 nM
0.01467 | 0 | 0 | 0.03418 | 0 | NCC(C(=O)Nc1cc(Br)c(-c2ccnc3[nH]ccc23)s1)c1ccccc1 (centres unmarked) [GSK1269851A] | potency estimated from few doses (ACAD11 [5]): > 1000 nM; potency estimated from few doses (AAK1): 84.4 nM; potency estimated from few doses (ABL2 [6]): 433 nM; selectivity in the Kinobeads assay (CATDSmost potent) [7]: unselective; potency estimated from few doses (ABL1 [8]): > 1000 nM
0 | 0 | 0 | 0 | 0 | COc1ccc(Nc2nccc(N3CCC(NC(=O)Nc4ccc5c(c4)OCO5)C3)n2)cc1 (centres unmarked) [GSK1379745A] | potency estimated from few doses (ABCD3): > 1000 nM
0 | 0 | 0 | 0.2295 | 0.1181 | Cc1cc(-c2ccnc(Nc3cccc(C#N)c3)n2)cc(C)c1O [GSK1440913A] | potency estimated from few doses (ACAD11 [5]): 425 nM; potency estimated from few doses (AAK1): 120 nM
0 | 0 | 0 | 0 | 0 | CCc1nc(-c2cccc(N(C)S(=O)(=O)c3ccccc3)c2)c(-c2ccnc(Nc3ccc(N4CCN(C(C)=O)CC4)nc3)n2)s1 [GSK1645895A] | potency estimated from few doses (ABCD3): > 1000 nM
